Results published in ChEMBL document CHEMBL1150976, “The selectivity of protein kinase inhibitors: a further update” (Biochem J, 2007).

Key:
[1] = molecular target: Serine/threonine-protein kinase pim-2 (Homo sapiens, UniProt Q9P1W9); test: Percentage PIM2 activity remaining in the presence of 0.1uM inhibitor
[2] = molecular target: Serine/threonine-protein kinase pim-3 (Homo sapiens, UniProt Q86V86); test: Percentage PIM3 activity remaining in the presence of 0.1uM inhibitor
[3] = molecular target: Maternal embryonic leucine zipper kinase (Homo sapiens) (UniProt Q14680); test: Percentage MELK activity remaining in the presence of 0.1uM inhibitor
Maternal embryonic leucine zipper kinase (Homo sapiens), sequence (Q14680 whole entry, looked up): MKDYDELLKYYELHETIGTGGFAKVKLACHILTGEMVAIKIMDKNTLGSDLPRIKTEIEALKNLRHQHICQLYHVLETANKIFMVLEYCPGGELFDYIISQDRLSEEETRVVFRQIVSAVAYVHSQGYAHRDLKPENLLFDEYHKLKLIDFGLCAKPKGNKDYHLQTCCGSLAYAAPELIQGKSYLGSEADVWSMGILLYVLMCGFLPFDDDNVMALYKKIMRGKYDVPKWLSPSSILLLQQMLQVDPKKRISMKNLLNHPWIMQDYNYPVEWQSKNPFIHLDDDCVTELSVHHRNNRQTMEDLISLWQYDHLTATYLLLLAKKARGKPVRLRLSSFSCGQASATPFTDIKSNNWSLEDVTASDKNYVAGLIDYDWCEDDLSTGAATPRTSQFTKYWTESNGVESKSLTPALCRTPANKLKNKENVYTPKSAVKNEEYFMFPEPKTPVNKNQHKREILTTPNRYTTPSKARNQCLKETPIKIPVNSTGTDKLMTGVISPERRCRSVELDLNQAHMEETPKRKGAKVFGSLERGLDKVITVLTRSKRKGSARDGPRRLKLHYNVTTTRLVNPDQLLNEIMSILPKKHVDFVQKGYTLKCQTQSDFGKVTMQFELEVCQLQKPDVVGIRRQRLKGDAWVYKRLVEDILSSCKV

[4] = molecular target: T1, Serine/threonine-protein kinase Nek2 (Homo sapiens) (UniProt P51955); test: Percentage NEK2a activity remaining in the presence of 0.1uM inhibitor
T1 sequence (whole entry): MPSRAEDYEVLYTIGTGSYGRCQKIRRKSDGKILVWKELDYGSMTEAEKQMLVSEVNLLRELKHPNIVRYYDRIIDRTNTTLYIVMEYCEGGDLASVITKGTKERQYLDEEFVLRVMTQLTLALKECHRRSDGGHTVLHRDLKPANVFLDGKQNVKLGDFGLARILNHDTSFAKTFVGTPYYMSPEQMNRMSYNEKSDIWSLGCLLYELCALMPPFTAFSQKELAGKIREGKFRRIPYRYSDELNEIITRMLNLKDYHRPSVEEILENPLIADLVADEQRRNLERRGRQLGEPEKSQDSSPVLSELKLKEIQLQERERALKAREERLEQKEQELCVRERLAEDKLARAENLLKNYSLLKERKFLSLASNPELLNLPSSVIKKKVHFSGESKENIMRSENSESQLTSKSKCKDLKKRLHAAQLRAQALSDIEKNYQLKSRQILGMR

[5] = molecular target: T2, Mitogen-activated protein kinase 13 (Homo sapiens) (UniProt O15264); test: Percentage p38delta activity remaining in the presence of 0.1uM inhibitor
T2 sequence (whole entry): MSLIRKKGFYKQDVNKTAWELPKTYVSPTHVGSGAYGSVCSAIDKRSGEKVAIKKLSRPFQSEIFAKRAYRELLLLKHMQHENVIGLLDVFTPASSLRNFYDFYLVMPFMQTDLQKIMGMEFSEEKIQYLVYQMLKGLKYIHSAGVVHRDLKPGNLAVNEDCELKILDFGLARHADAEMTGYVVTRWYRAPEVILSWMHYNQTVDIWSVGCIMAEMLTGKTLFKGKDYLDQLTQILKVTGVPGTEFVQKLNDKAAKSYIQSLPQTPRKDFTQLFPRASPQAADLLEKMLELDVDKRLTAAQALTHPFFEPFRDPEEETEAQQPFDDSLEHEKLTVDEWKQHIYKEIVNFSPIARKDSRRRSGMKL

[6] = molecular target: Ribosomal protein S6 kinase beta-1 (Homo sapiens, UniProt P23443); test: Percentage S6K1 activity remaining in the presence of 0.1uM inhibitor
Ribosomal protein S6 kinase beta-1, sequence (P23443 whole entry, looked up): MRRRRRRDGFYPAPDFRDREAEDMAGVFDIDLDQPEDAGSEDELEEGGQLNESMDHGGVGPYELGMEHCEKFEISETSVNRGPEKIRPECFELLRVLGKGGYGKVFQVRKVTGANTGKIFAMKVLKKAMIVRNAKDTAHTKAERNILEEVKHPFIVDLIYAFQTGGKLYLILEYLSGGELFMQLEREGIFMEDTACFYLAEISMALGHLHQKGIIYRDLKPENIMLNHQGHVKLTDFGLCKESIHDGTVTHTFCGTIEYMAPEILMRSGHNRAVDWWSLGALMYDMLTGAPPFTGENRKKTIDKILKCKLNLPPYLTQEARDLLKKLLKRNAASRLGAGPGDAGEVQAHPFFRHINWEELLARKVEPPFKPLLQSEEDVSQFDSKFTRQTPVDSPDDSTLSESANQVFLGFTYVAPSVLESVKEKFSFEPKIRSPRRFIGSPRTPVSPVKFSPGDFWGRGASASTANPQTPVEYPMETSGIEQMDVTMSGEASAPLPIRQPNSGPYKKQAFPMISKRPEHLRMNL

[7] = molecular target: Calcium/calmodulin-dependent protein kinase kinase 2 (Homo sapiens) (UniProt Q96RR4); test: Percentage CaMKKbeta activity remaining in the presence of 0.1uM inhibitor
Calcium/calmodulin-dependent protein kinase kinase 2 (Homo sapiens), sequence (Q96RR4 2-588 limits assumed): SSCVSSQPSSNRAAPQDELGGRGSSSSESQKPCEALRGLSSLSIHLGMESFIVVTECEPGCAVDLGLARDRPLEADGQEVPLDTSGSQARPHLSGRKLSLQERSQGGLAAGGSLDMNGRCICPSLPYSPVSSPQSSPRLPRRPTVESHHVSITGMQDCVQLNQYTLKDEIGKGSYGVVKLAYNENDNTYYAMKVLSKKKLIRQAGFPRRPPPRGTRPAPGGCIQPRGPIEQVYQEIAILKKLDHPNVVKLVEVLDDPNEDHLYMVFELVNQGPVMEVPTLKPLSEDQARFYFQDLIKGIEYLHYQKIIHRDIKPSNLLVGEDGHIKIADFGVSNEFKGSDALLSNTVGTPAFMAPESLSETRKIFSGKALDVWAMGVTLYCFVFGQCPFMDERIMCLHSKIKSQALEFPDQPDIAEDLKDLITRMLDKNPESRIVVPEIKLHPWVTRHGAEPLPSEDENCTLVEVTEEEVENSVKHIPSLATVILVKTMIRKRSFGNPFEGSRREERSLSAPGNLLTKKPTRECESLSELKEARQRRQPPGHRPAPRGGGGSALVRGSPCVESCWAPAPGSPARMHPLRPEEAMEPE

[8] = molecular target: T3, Dual specificity tyrosine-phosphorylation-regulated kinase 2 (Homo sapiens) (UniProt Q92630); test: Percentage DYRK2 activity remaining in the presence of 0.1uM inhibitor
T3 sequence (whole entry): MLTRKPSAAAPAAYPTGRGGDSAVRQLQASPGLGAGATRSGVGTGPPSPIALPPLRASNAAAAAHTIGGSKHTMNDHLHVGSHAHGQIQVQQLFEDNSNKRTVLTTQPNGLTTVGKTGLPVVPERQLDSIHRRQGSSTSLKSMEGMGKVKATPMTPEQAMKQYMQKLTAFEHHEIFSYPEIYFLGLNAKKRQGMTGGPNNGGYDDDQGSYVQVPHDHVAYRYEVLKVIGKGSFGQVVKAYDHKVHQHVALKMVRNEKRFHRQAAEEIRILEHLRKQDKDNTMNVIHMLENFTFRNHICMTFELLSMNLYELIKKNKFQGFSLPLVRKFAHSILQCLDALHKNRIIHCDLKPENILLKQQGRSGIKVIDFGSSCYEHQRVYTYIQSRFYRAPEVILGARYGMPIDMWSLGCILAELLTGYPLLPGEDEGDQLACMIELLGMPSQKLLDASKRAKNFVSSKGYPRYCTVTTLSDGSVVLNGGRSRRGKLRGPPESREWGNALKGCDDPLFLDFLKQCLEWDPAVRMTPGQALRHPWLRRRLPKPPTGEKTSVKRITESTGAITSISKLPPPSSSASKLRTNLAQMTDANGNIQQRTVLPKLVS

[9] = molecular target: T4, Serine/threonine-protein kinase BRSK2 (Homo sapiens) (UniProt Q8IWQ3); test: Percentage BRSK2 activity remaining in the presence of 0.1uM inhibitor
T4 sequence (whole entry): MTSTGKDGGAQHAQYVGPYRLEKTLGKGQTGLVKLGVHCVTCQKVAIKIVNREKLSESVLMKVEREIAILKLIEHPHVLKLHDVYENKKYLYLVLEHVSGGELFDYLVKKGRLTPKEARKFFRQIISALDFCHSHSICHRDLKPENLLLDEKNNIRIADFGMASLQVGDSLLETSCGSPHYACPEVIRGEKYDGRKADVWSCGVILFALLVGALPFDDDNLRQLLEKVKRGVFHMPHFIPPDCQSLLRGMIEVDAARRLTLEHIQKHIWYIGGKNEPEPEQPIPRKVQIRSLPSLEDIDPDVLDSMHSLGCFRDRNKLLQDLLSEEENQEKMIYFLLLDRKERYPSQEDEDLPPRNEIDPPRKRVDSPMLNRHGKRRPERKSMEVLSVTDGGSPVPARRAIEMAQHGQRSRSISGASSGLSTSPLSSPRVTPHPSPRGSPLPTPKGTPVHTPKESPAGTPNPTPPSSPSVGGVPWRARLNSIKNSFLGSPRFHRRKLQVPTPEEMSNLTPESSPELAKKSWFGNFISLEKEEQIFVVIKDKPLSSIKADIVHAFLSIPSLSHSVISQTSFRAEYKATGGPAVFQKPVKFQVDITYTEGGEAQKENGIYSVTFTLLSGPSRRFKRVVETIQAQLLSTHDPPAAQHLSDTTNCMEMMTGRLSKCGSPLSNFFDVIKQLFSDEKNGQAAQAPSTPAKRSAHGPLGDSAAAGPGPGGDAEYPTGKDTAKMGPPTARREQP

[10] = molecular target: Serine/threonine-protein kinase PLK1 (Homo sapiens, UniProt P53350); test: Percentage PLK1 activity remaining in the presence of 0.1uM inhibitor
Serine/threonine-protein kinase PLK1, sequence (P53350 whole entry): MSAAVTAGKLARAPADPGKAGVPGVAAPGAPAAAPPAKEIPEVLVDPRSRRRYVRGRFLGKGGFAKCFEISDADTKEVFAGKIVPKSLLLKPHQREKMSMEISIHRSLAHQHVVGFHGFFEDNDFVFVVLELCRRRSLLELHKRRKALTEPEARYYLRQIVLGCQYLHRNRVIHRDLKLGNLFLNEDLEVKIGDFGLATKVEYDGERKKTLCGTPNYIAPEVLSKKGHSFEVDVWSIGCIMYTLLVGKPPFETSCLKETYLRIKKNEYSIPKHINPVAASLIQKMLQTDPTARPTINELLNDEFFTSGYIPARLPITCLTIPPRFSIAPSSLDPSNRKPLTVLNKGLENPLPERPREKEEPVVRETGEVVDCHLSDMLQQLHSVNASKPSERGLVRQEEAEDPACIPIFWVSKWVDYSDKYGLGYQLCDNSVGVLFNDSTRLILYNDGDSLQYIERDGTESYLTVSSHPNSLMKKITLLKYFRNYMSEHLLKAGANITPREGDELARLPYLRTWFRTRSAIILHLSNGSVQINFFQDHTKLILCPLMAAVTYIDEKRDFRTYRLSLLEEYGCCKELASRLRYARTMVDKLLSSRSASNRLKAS

[11] = molecular target: MAP/microtubule affinity-regulating kinase 3 (Homo sapiens) (UniProt P27448); test: Percentage MARK3 activity remaining in the presence of 0.1uM inhibitor
MAP/microtubule affinity-regulating kinase 3 (Homo sapiens), sequence (P27448 whole entry, looked up): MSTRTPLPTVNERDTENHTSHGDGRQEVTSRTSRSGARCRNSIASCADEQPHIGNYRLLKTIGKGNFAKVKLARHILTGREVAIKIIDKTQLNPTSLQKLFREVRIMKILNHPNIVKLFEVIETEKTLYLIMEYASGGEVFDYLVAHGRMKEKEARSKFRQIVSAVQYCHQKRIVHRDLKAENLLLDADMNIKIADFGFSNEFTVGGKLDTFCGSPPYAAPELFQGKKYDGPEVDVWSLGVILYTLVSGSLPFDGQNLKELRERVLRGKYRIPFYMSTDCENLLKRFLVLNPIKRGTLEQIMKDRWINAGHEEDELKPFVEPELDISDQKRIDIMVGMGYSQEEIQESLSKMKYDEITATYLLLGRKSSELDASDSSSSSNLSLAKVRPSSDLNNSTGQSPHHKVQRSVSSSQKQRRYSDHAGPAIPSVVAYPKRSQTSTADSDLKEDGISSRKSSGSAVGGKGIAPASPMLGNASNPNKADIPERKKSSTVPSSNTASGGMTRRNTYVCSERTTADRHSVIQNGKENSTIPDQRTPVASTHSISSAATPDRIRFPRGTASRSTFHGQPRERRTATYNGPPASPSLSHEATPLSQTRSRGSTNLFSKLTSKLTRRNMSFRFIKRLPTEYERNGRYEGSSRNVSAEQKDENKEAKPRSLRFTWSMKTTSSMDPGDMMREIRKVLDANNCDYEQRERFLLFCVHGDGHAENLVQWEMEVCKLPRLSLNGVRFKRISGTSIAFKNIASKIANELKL

Serine/threonine-protein kinase pim-2, sequence (Q9P1W9 whole entry, looked up): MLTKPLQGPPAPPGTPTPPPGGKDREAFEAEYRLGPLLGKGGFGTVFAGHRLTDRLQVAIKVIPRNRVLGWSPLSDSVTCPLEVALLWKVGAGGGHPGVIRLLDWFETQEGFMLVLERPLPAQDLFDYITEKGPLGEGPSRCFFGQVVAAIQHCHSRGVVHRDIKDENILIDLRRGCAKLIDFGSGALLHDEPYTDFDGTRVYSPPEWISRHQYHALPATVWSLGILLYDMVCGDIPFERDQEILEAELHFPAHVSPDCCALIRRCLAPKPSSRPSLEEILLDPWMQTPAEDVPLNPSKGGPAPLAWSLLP

Compound | Activity [1] [%] | Activity [2] [%] | Activity ([3]; filed as antagonist) [%] | Activity [4] [%] | Activity [5] [%] | Activity [6] [%] | Activity [7] [%] | Activity [8] [%] | Activity [9] [%] | Activity ([10]; filed as antagonist) [%] | Activity [11] [%] | Activity ([7]; filed as antagonist) [%] | Activity ([9]; filed as antagonist) [%] | Activity [10] [%] | Activity ([11]; filed as antagonist) [%] | Activity ([1]; filed as antagonist) [%] | Activity ([2]; filed as antagonist) [%] | Activity [3] [%] | Activity ([6]; filed as antagonist) [%] | Activity ([8]; filed as antagonist) [%]
CC(C)CCN1c2nc(Nc3cc(F)c(O)c(F)c3)ncc2N(C)C(=O)C1C (configuration not stated) | 100 | 65 | 40 | 98 | 105 | 119 | 73 | 91 | 78 | 5 | 79 |  |  |  |  |  |  |  |  | 
O=C(NCCCNc1nc(Nc2cccc(NC(=O)N3CCCC3)c2)ncc1I)c1cccs1 | 92 | 63 | 32 | 95 | 76 | 84 |  | 76 |  |  |  | 30 | 45 | 92 | 3 |  |  |  |  | 
Cc1n[nH]c2ccc(-c3cncc(OC[C@@H](N)Cc4c[nH]c5ccccc45)c3)cc12 |  |  |  | 95 | 68 |  |  |  | 79 |  | 83 |  |  | 80 |  | 15 | 13 | 63 | 32 | 26
Cn1c2ccccc2c2c3c(c4c5ccccc5n(CCC#N)c4c21)CNC3=O |  |  | 15 | 87 | 82 |  |  |  |  |  |  | 11 | 46 | 80 | 12 |  | 7 |  | 12 | 49
CN(C)C[C@@H]1CCn2cc(c3ccccc32)C2=C(C(=O)NC2=O)c2cn(c3ccccc23)CCO1 |  |  |  | 91 |  | 52 | 53 | 85 |  |  | 73 |  |  | 85 |  | 41 | 5 |  |  | 
CC(C)[C@H](CO)Nc1nc(Nc2cccc(Cl)c2)c2ncn(C(C)C)c2n1 [PURVALANOLA] | 96 | 91 |  | 95 | 98 | 87 | 60 | 91 | 76 |  | 89 |  |  | 81 |  |  |  | 72 |  | 
Cn1cc(C2=C(c3cn(CCCSC(=N)N)c4ccccc34)C(=O)NC2=O)c2ccccc21 |  |  |  | 84 | 92 |  | 65 | 90 | 65 |  | 77 |  |  | 82 |  | 30 | 16 | 61 | 20 | 
